Activity calls are given as the source filed them. The calls are words filed in the database; no cut-off is given here. *1 amine or outer side, *2 acyl side, *3 side chain or, on linkers, in order; H or OH if unused. Where a SMILES comes first, the peptide text is derived from it. Bridges are numbered along the chain shown (N, C = ends). [ ]: non-standard residue; d: D form. X1 = O=C([C@H](CC/C=C\[*:3])N[*:1])[*:2]; X2 = O=C([C@H](CC/C=C/[*:3])N[*:1])[*:2]; hCys = N[C@@H](CCS)C(=O)O
Key:
[1] = biological target: T1, Type-1 angiotensin II receptor B (Rattus norvegicus) (UniProt P29089); assay: In vitro binding affinity at rat liver Angiotensin II receptor, type 1 was determined based on displacement of [125I]-Ang II; no affinity
T1 sequence (whole entry): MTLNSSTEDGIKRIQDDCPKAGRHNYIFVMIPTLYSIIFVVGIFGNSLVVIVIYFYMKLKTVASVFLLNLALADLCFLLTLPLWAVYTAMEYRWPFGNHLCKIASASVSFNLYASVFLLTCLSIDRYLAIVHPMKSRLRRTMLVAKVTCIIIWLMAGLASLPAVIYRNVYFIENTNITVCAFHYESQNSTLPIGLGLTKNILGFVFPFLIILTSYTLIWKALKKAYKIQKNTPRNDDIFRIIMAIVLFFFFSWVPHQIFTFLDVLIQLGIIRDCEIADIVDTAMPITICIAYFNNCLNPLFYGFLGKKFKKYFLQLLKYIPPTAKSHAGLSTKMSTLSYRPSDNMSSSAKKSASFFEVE

[2] = biological target: T2, Type-1 angiotensin II receptor B (Rattus norvegicus, UniProt P29089); assay: In vitro binding affinity at rat liver Angiotensin II receptor, type 1 was determined based on displacement of [125I]-Ang II
T2 sequence (P29089 whole entry): T1 sequence (whole entry)

Oryctolagus cuniculus = organism: Oryctolagus cuniculus; assay: Agonistic activity in vascular contractility study on rabbit aorta; type: functional, organism-based

| Compound | Ki [2] [nM] | EC50 (Oryctolagus cuniculus) [nM] | also measured |
| --- | --- | --- | --- |
| CC(C)[C@H](NC(=O)[C@H](CCCN=C(N)N)NC(=O)[C@@H](N)CC(=O)O)C(=O)N[C@@H](Cc1ccc(O)cc1)C(=O)N[C@H]1CC/C=C/SC[C@@H](C(=O)N[C@@H](Cc2ccccc2)C(=O)O)NC(=O)[C@H](Cc2c[nH]cn2)NC1=O (H-DRVY[X2]HCF-OH; thioether 5-7) |  |  | NA [1]: inactive |
| NC(N)=NCCC[C@H](NC(=O)[C@@H](N)CC(=O)O)C(=O)N[C@H]1CS/C=C\CC[C@@H](C(=O)N[C@@H](Cc2cnc[nH]2)C(=O)N2CCC[C@H]2C(=O)N[C@@H](Cc2ccccc2)C(=O)O)NC(=O)[C@H](Cc2ccc(O)cc2)NC1=O (H-DRCY[X1]HPF-OH; thioether 3-5) | 1.7 |  |  |
| CC[C@H](C)[C@H](NC(=O)[C@H](Cc1ccc(O)cc1)NC(=O)[C@@H](NC(=O)[C@H](CCCNC(=N)N)NC(=O)[C@@H](N)CC(=O)O)C(C)C)C(=O)N[C@@H](Cc1cnc[nH]1)C(=O)N1CCC[C@H]1C(=O)N[C@@H](Cc1ccccc1)C(=O)O [ANGIOTENSIN II] |  | 1.4 |  |
| NC(N)=NCCC[C@H](NC(=O)[C@@H](N)CC(=O)O)C(=O)N[C@H]1CS/C=C\CC[C@@H](C(=O)N[C@@H](Cc2c[nH]cn2)C(=O)N2CCC[C@H]2C(=O)N[C@@H](Cc2ccccc2)C(=O)O)NC(=O)[C@H](Cc2ccc(O)cc2)NC1=O (H-DRCY[X1]HPF-OH; thioether 3-5) |  | 26 |  |
| CC(C)[C@H](NC(=O)[C@H](CCCN=C(N)N)NC(=O)[C@@H](N)CC(=O)O)C(=O)N[C@@H](Cc1ccc(O)cc1)C(=O)N[C@H]1CC/C=C\SC[C@@H](C(=O)N[C@@H](Cc2ccccc2)C(=O)O)NC(=O)[C@H](Cc2c[nH]cn2)NC1=O (H-DRVY[X1]HCF-OH; thioether 5-7) |  |  | NA [1]: inactive |
| NC(N)=NCCC[C@H](NC(=O)[C@@H](N)CC(=O)O)C(=O)N[C@H]1CS/C=C/CC[C@@H](C(=O)N[C@@H](Cc2c[nH]cn2)C(=O)N2CCC[C@H]2C(=O)N[C@@H](Cc2ccccc2)C(=O)O)NC(=O)[C@H](Cc2ccc(O)cc2)NC1=O (H-DRCY[X2]HPF-OH; thioether 3-5) |  | 16.1 |  |
| NC(N)=NCCC[C@H](NC(=O)[C@@H](N)CC(=O)O)C(=O)N[C@H]1CCSSCC[C@@H](C(=O)N[C@@H](Cc2c[nH]cn2)C(=O)N2CCC[C@H]2C(=O)N[C@@H](Cc2ccccc2)C(=O)O)NC(=O)[C@H](Cc2ccc(O)cc2)NC1=O (H-DR[hCys]Y[hCys]HPF-OH; disulfide 3-5) | 0.23 |  |  |
| NC(N)=NCCC[C@H](NC(=O)[C@@H](N)CC(=O)O)C(=O)N[C@H]1CS/C=C/CC[C@@H](C(=O)N[C@@H](Cc2cnc[nH]2)C(=O)N2CCC[C@H]2C(=O)N[C@@H](Cc2ccccc2)C(=O)O)NC(=O)[C@H](Cc2ccc(O)cc2)NC1=O (H-DRCY[X2]HPF-OH; thioether 3-5) | 1.7 |  |  |
